Results as given in patent US20160303181A1, “SYNERGISTIC COMBINATION OF ALANINE-GLUTAMINE, HYALURONIC ACID AND OAT EXTRACT AND THE USE THEREOF IN A COMPOSITION INTENDED FOR HEALING WOUNDS AND REPAIRING SKIN LESIONS” (PIERRE FABRE DERMO-COSMETIQUE, priority 2013, published 2016).
Marks after values point to notes of the source that are not given here. Residues, ends and D or L forms follow the SMILES beside them.

Tested on: HaCaT human keratinocyte line
Test: Migration of keratinocytes, Oris Cell Migration Assay
Format: cell-based
Settings: DMEM 0% FCS, 24 hours; for effect on the migration of keratinocytes (in words): oat seedling extract 10 or 30 μg/ml, hyaluronate 20 or 60 μg/ml, L-alanyl-L-glutamine 40 or 90 μg/ml, EGF 33 ng/ml; for % Migration (percentage activity compared to the control 0% FCS): control = 100
Source text: The objective of this test was to evaluate the effect of hyaluronic acid, oat seedling extract, L-alanyl-L-glutamine and combinations thereof on the migration of keratinocytes using the Oris Cell Migration Assay kit (Platypus Technologies).
The spontaneously immortalised HaCaT human keratinocyte line, frequently cited as reference model in the literature was used.
The protocol used for the study of cell migration is based on the use of a 96 well kit, the Oris Cell Migration Assay (Platypus technologies—TEBU), enabling the miniaturisation and the quantification of this cellular process.
The principle of this test consists in studying cell migration towards the centre of the wells of the 96 well plate. It consists in placing a stopper in the wells, in order to create a 2 mm diameter detection zone. Then removing the stoppers once cells have properly adhered to the surface around them, and thus to enable cells to migrate towards the detection zone. The plates without stoppers and with the active ingredients are incubated at 37° C. for 24 hours in DMEM (Dulbecco's Modified Eagle Medium) 0% FCS (foetal calf serum). The quantity of cells situated in the zone where the stopper was is analysed in order to evaluate the migration of the cells. A mask makes it possible to visualise and to count uniquely the cells situated in this zone. For each condition, the average is determined on 6 to 8 wells.
The cells were incubated in FCS-free medium.
• EGF: 33 ng/ml, • oat seedling extract: 10 or 30 μg/ml,
Filtering. Concentration by drying until a dry extract is obtained. • sodium hyaluronate (molecular weight 250-450 kDa): 20 or 60 μg/ml, • L-alanyl-L-glutamine: 40 or 90 μg/ml.
The Results are Expressed: • In fluorescence intensity (FI), proportional to the quantity of cells having migrated. • In percentage activity compared to the control 0% FCS.
Statistical analyses by the Dunnett test were carried out on the crude migration values. This test then gives “p value” values characterising the significance of the results obtained for different conditions. The degree of significance was fixed at […]

[1] = Table 1, lower concentrations: EGF 33 ng/ml, ES 10 μg/ml, AH 20 μg/ml, A-G 40 μg/ml, control 1850
[2] = Table 1, lower concentrations: EGF 33 ng/ml, ES 10 μg/ml, AH 20 μg/ml, A-G 40 μg/ml
[3] = Table 2, higher concentrations: EGF 33 ng/ml, ES 30 μg/ml, AH 60 μg/ml, A-G 90 μg/ml, control 1729 ± 384
[4] = Table 2, higher concentrations: EGF 33 ng/ml, ES 30 μg/ml, AH 60 μg/ml, A-G 90 μg/ml

Compound	effect on the migration of keratinocytes (in words)	Average ± SD (fluorescence intensity, proportional to the quantity of cells having migrated) [1]	% Migration (percentage activity compared to the control 0% FCS) [2]	Average ± SD (fluorescence intensity, proportional to the quantity of cells having migrated) [3]	% Migration (percentage activity compared to the control 0% FCS) [4]
C[C@H](N)C(=O)N[C@@H](CCC(N)=O)C(=O)O [A-G, L-alanyl-L-glutamine] (H-Ala-Gln-OH)	induces the migration of keratinocytes in a concentration-dependent manner	2471 ± 788	200%	2586 ± 1092	194%
sodium hyaluronate [AH]	did not have any significant effect on the migration of keratinocytes	1939 ± 438	114%	1735 ± 488	101%
EGF: positive control of the migration experiments, 33 ng/ml	induces the migration of keratinocytes	2569±	216%	3553 ± 1556	301 * %
